In the supplement of paper PMC10307832:

How the values were obtained:
Experiment in all cases: relative viability (nuclei count vs DMSO), 5 days (fraction); higher = more cells survive
[1] = compound: O=C(Nc1cccc(C(F)(F)F)c1)Nc1cc(S(=O)(=O)NC2CC2)ccc1-c1ccsc1 [AGI-6780] + CS(=O)(=O)N1CCN(Cc2cc3nc(-c4cccc5[nH]ncc45)nc(N4CCOCC4)c3s2)CC1 [Pictilisib] (partner 1 µM)
How it was run: (§1)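 Lung cancer cell lines in 1536-well plates were dosed by pin tool the day after seeding, either with one drug alone or with a fixed anchor-drug dose plus five library-drug doses (not always all listed) in √10 steps. After 5 days, cells were fixed and their nuclei stained in one step (final 0.05% Triton X-100, 1% formaldehyde, 1 ug/ml Hoechst), then counted on 4× images. Relative viability is the nuclei count in treated wells divided by that in vehicle wells. Values are medians of duplicate plates.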

[2] = compound: O=C(Nc1cccc(C(F)(F)F)c1)Nc1cc(S(=O)(=O)NC2CC2)ccc1-c1ccsc1 [AGI-6780] + Cc1nc(NC(=O)N2CCC[C@H]2C(N)=O)sc1-c1ccnc(C(C)(C)C(F)(F)F)c1 [Alpelisib] (partner 2 µM)
How it was run: as §1

[3] = compound: O=C(Nc1cccc(C(F)(F)F)c1)Nc1cc(S(=O)(=O)NC2CC2)ccc1-c1ccsc1 [AGI-6780] + NC(=O)Nc1cc(-c2cccc(F)c2)sc1C(=O)N[C@H]1CCCNC1 [AZD7762] (partner 0.2 µM)
How it was run: as §1

[4] = compound: O=C(Nc1cccc(C(F)(F)F)c1)Nc1cc(S(=O)(=O)NC2CC2)ccc1-c1ccsc1 [AGI-6780] + N=C(N)NC(=N)NCCc1ccccc1 [Phenformin] (partner 250 µM)
How it was run: as §1

Row | Cell Line | relative viability ([1]; first compound 0.08 µM) | relative viability ([1]; first compound 0.253 µM) | relative viability ([1]; first compound 0.8 µM) | relative viability ([1]; first compound 2.53 µM) | relative viability ([1]; first compound 8 µM) | relative viability ([2]; first compound 0.08 µM) | relative viability ([2]; first compound 0.253 µM) | relative viability ([2]; first compound 0.8 µM) | relative viability ([2]; first compound 2.53 µM) | relative viability ([2]; first compound 8 µM) | relative viability ([3]; first compound 0.08 µM) | relative viability ([3]; first compound 0.253 µM) | relative viability ([3]; first compound 0.8 µM) | relative viability ([3]; first compound 2.53 µM) | relative viability ([3]; first compound 8 µM) | relative viability ([4]; first compound 0.08 µM) | relative viability ([4]; first compound 0.253 µM) | relative viability ([4]; first compound 0.8 µM) | relative viability ([4]; first compound 2.53 µM) | relative viability ([4]; first compound 8 µM)
1 | LOU-NH91 | 0.524 | 0.529 | 0.554 | 0.505 | 0.525 | 0.743 | 0.699 | 0.685 | 0.646 | 0.721 | 0.759 | 0.802 | 0.79 | 0.67 | 0.812 | 0.707 | 0.659 | 0.774 | 0.677 | 0.698
2 | LU99A | 0.396 | 0.339 | 0.339 | 0.273 | 0.317 | 0.528 | 0.524 | 0.516 | 0.518 | 0.558 | 0.404 | 0.422 | 0.45 | 0.345 | 0.421 | 0.866 | 0.747 | 0.815 | 0.773 | 0.79
3 | LXF-289 | 0.827 | 0.803 | 0.766 | 0.741 | 0.827 | 1.03 | 1.04 | 1.07 | 1.09 | 1.03 | 1.16 | 1.17 | 1.11 | 1.37 | 0.991 | 0.516 | 0.518 | 0.538 | 0.529 | 0.541
4 | NCI-H23 | 0.614 | 0.571 | 0.624 | 0.437 | 0.609 | 0.971 | 0.745 | 0.811 | 0.473 | 0.791 | 0.259 | 0.24 | 0.23 | 0.294 | 0.23 | 0.822 | 0.747 | 0.766 | 0.719 | 0.784
5 | NCI-H322M | 0.518 | 0.572 | 0.526 | 0.585 | 0.524 | 0.902 | 0.917 | 0.88 | 0.906 | 0.827 | – | 0.767 | 0.551 | 0.555 | 0.653 | 0.755 | 0.788 | 0.816 | 0.808 | 0.85
6 | NCI-H358 | 0.355 | 0.38 | 0.355 | 0.289 | 0.336 | 0.896 | 0.906 | 0.835 | 0.63 | 0.721 | 0.678 | 0.504 | 0.648 | 0.501 | 0.475 | 0.363 | 0.317 | 0.438 | 0.35 | 0.394
7 | NCI-H441 | 0.562 | 0.483 | 0.565 | 0.288 | 0.381 | 0.885 | 0.783 | 0.713 | 0.382 | 0.646 | 1.33 | 1.35 | 1.43 | 1.2 | 1.39 | 1.07 | 0.964 | 0.822 | 0.668 | 0.787
8 | NCI-H460 | 0.325 | 0.338 | 0.382 | 0.242 | 0.374 | 0.536 | 0.458 | 0.514 | 0.327 | 0.568 | 0.444 | 0.671 | 0.684 | 0.726 | 0.564 | 0.529 | 0.527 | 0.568 | 0.585 | 0.524
9 | NCI-H596 | 0.419 | 0.399 | 0.376 | 0.382 | 0.476 | 0.6 | 0.501 | 0.455 | 0.427 | 0.516 | 1.18 | 1.06 | 1.1 | 0.891 | 1.01 | 0.739 | 0.876 | 0.758 | – | 0.752
10 | NCI-H647 | 0.428 | 0.452 | 0.421 | 0.347 | 0.342 | 1.19 | 1.16 | 1.24 | 1.06 | 1.13 | 0.425 | 0.484 | 0.827 | 0.401 | 0.589 | 0.409 | 0.609 | 0.729 | 0.408 | 0.744
11 | NCI-H650 | 0.872 | 0.769 | 0.833 | 0.775 | 0.826 | 1.15 | 0.956 | 1.15 | 0.855 | 1.26 | 0.81 | 1.05 | 1.24 | 0.92 | 1.07 | 0.447 | 0.502 | 0.451 | 0.435 | 0.438
12 | NCI-H727 | 0.516 | 0.545 | 0.38 | 0.227 | 0.276 | 0.679 | 0.588 | 0.742 | 0.491 | 0.548 | 0.45 | 0.536 | 0.65 | 0.589 | 0.749 | 0.62 | 0.536 | 0.687 | 0.563 | 0.698
13 | NCI-H838 | 0.473 | 0.479 | 0.469 | 0.447 | 0.48 | 1.05 | 0.927 | 1.01 | 0.825 | 0.959 | 0.988 | 0.903 | 0.919 | 0.932 | 0.909 | 0.644 | 0.637 | 0.643 | 0.516 | 0.631
14 | NCI-H1355 | 0.492 | 0.503 | 0.5 | 0.326 | 0.437 | 0.98 | 0.894 | 0.848 | 0.696 | 0.787 | 0.792 | 0.812 | 0.769 | 0.663 | 0.655 | 0.485 | 0.451 | 0.484 | 0.393 | 0.448
15 | NCI-H1395 | 0.638 | 0.626 | 0.574 | – | 0.65 | 1.14 | 1.15 | 1.23 | – | 0.969 | 0.366 | 0.4 | 0.412 | 0.428 | 0.387 | 0.469 | 0.46 | 0.45 | 0.397 | 0.449
16 | NCI-H1437 | 0.438 | 0.545 | 0.432 | 0.283 | 0.43 | 1.07 | 0.888 | 1.04 | 0.882 | 0.885 | 1.11 | 1.11 | 1.28 | 1.16 | 1.17 | 0.337 | 0.382 | 0.298 | 0.327 | 0.343
